Test results reported in US20120129833A1, “CYCLIC KETOENOLS FOR THERAPY” (BAYER PHARMA AKTIENGESELLSCHAFT, priority 2010, published 2012).

Key:
[1] = target: T1, recombinant human ACC1 (acetyl-CoA carboxylase 1) (Homo sapiens, UniProt Q13085); assay: Human ACC1 enzyme assay (HTRF ADP detection); assay type: biochemical; conditions: 50 μM ATP, 20 μM acetyl-CoA, 15 min pre-incubation, 20 min at 22° C.; read-out: ACC 1 IC50;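 further: ADP by-product quantified by competitive HTRF immunoassay with europium cryptate anti-ADP antibody and d2-labelled ADP, read after 1 h binding at 22 °C, enzyme near 2.5 ng/µl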
T1 construct: NM_198834, amino acids 39—end; FLAG (C); made in house; host or cells: baculovirus-transfected insect cells (Hi5)
Procedure: The basic principle of the assay is the measurement of adenosine diphosphate (ADP), which is formed as a by-product, by means of an HTRF®-based competitive immunoassay (HTRF=Homogeneous Time Resolved Fluorescence).
(§1) The amount of complex of d2-labelled ADP and europium cryptate-labelled anti-ADP antibody was then determined by measuring the resonance energy transfer of europium cryptate to d2.

[2] = target: T2, ACC2 (acetyl-CoA carboxylase 2) (Homo sapiens, UniProt O00763); assay: Human ACC2 enzyme assay (HTRF ADP detection); assay type: biochemical; conditions: 20 μM acetyl-CoA, 15 min pre-incubation, 20 min at 22° C.; read-out: ACC 2 IC50
T2 construct: catalogue no; 50201, amino acids 39—end, expressed in baculovirus-transfected Sf9 insect cells; His (C); purchased BPS Bioscience (San Diego, Calif.) 50201; host or cells: baculovirus-transfected Sf9 insect cells
T2 sequence (O00763 39-2458 limits assumed): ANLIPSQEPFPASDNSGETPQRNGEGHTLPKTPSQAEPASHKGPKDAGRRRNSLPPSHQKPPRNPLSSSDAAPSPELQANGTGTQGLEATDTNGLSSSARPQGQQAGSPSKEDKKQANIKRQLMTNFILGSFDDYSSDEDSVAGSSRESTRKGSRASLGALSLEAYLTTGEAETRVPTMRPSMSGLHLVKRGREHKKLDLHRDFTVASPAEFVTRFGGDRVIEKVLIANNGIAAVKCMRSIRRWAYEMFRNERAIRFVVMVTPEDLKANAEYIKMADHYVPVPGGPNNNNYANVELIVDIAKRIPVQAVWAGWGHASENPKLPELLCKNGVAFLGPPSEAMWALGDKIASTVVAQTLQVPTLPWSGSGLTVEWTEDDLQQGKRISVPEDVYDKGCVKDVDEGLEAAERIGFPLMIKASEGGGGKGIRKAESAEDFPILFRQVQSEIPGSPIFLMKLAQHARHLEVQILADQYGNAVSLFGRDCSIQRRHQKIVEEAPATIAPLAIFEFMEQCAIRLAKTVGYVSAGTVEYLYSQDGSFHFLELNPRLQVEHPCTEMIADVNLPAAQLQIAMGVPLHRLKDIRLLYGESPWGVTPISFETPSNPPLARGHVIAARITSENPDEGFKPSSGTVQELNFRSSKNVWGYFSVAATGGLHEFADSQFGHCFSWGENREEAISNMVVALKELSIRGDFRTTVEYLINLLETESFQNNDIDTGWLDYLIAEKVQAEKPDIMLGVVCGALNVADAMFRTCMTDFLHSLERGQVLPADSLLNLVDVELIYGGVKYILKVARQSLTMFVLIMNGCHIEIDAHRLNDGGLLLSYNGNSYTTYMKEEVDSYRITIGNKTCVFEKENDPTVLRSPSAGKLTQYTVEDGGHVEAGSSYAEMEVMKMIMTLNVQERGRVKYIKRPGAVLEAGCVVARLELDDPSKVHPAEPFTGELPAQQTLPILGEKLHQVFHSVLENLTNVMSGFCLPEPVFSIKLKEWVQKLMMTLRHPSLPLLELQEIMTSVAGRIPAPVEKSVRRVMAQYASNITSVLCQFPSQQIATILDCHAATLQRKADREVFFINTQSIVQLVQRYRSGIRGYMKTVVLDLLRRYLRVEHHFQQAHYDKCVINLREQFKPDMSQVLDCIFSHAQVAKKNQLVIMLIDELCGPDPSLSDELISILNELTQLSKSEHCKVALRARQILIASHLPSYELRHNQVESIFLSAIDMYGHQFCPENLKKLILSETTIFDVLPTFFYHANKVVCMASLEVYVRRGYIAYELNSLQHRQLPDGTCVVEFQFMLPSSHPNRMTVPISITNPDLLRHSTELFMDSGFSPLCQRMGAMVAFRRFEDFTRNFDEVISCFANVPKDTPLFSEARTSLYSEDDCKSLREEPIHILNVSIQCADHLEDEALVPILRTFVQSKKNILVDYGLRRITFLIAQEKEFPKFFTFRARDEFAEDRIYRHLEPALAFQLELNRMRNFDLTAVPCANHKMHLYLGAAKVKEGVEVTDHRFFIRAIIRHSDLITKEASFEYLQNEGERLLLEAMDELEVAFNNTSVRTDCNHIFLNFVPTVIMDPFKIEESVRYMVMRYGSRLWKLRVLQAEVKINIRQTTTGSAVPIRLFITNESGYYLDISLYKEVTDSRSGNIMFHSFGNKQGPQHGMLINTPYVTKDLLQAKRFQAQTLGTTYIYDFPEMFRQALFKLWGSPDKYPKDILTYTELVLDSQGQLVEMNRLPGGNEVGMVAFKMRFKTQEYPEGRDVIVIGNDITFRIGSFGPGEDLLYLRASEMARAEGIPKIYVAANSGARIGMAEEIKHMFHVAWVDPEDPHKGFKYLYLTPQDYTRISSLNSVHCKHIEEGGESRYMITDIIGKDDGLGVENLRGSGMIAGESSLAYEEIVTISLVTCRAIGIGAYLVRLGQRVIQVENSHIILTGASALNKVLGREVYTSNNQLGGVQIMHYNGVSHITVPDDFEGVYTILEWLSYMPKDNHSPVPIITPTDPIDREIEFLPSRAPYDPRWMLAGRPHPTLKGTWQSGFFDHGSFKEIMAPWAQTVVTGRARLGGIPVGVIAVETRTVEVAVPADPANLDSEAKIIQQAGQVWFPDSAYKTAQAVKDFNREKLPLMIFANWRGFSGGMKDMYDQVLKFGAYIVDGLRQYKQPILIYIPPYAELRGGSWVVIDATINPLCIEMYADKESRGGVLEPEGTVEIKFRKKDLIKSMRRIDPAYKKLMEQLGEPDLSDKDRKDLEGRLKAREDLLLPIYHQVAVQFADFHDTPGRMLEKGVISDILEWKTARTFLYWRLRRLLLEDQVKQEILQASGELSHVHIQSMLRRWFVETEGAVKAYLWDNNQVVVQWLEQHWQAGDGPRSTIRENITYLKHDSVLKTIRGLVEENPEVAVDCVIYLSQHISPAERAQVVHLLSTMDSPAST
Procedure: The inhibitory activity of the substances of this invention with regard to acetyl-CoA carboxylase 2 (ACC2) was measured using the ACC2 assay described in the paragraphs below. The basic principle of the assay is the measurement of adenosine diphosphate (ADP), which is formed as a by-product, by means of an HTRF®-based competitive immunoassay (HTRF=Homogeneous Time Resolved Fluorescence).
as §1

Row | Structure (SMILES) | IC50 [1] [nM] | IC50 [2] [nM]
1 | CC[C@]1(OC)CC[C@@]2(CC1)NC(=O)C(c1c(C)ccc(-c3ccc(F)cc3)c1C)=C2O [Example 1-89, (5r,8r)-8-ethyl-3-(4′-fluoro-2,4-dimethylbiphenyl-3-yl)-4-hydroxy-8-methoxy-1-azaspiro[4.5]dec-3-en-2-one] | 858 | > 20000
2 | CCC1CCC2(CC1)OC(=O)C(c1cc(-c3ccc(Cl)cc3)ccc1C)=C2O (centres unmarked) [Example 2-1, 3-(4′-chloro-4-methylbiphenyl-3-yl)-8-ethyl-4-hydroxy-1-oxaspiro[4.5]dec-3-en-2-one] | 243 | 4150
3 | Cc1ccc(-c2ccc(Cl)cc2)c(C)c1C1=C(O)C2(CCCC2)OC1=O [Example 2-2, 3-(4′-chloro-2,4-dimethylbiphenyl-3-yl)-4-hydroxy-1-oxaspiro[4.4]non-3-en-2-one] | 260 | 5280
4 | Cc1ccc(-c2ccc(Cl)cc2)cc1C1=C(O)C(C)(C)OC1=O [Example 2-3, 3-(4′-chloro-4-methylbiphenyl-3-yl)-4-hydroxy-5,5-dimethylfuran-2(5H)-one] | 581 | 11700
5 | Cc1ccc(-c2ccc(Cl)cc2)c(C)c1C1=C(O)C2(CCCCC2)OC1=O [Example 2-4, 3-(4′-chloro-2,4-dimethylbiphenyl-3-yl)-4-hydroxy-1-oxaspiro[4.5]dec-3-en-2-one] | 190 | 1500
6 | Cc1cc(C)c(-c2ccc(Cl)cc2)c(C)c1C1=C(O)C(C)(C)OC1=O [Example 2-5, 3-(4′-chloro-2,4,6-trimethylbiphenyl-3-yl)-4-hydroxy-5,5-dimethylfuran-2(5H)-one] | 1480 | 5720
7 | Cc1cc(C)c(-c2ccc(Cl)cc2)c(C)c1C1=C(O)C2(CCCCC2)OC1=O [Example 2-6, 3-(4′-chloro-2,4,6-trimethylbiphenyl-3-yl)-4-hydroxy-1-oxaspiro[4.5]dec-3-en-2-one] | 2150 | 139
8 | COC1CCC2(CC1)OC(=O)C(c1cc(-c3ccccc3Cl)ccc1C)=C2O (centres unmarked) [Example 2-7, 3-(2′-chloro-4-methylbiphenyl-3-yl)-4-hydroxy-8-methoxy-1-oxaspiro[4.5]dec-3-en-2-one] | 500 | > 20000
9 | Cc1ccc(-c2ccc(Cl)cc2)cc1C1=C(O)C2(CC2)OC1=O [Example 2-8, 6-(4′-chloro-4-methylbiphenyl-3-yl)-7-hydroxy-4-oxaspiro[2.4]hept-6-en-5-one] | 420 | > 20000
10 | Cc1ccc(-c2ccc(Cl)cc2)cc1C1=C(O)C2(CCCOC2)OC1=O (centres unmarked) [Example 2-9, 3-(4′-chloro-4-methylbiphenyl-3-yl)-4-hydroxy-1,7-dioxaspiro[4.5]dec-3-en-2-one] | 334 | > 20000
11 | Cc1ccc(-c2ccc(Cl)cc2)cc1C1=C(O)C2(CCCCC2)OC1=O [Example 2-10, 3-(4′-chloro-4-methylbiphenyl-3-yl)-4-hydroxy-1-oxaspiro[4.5]dec-3-en-2-one] | 161 | 2350
12 | COC1CCCC2(C1)OC(=O)C(c1cc(-c3ccc(Cl)cc3)c(C)cc1C)=C2O (centres unmarked) [Example 2-11, 3-(4′-chloro-4,6-dimethylbiphenyl-3-yl)-4-hydroxy-7-methoxy-1-oxaspiro[4.5]dec-3-en-2-one] | 666 | 1550
13 | COC1CCCC2(C1)OC(=O)C(c1c(C)cc(C)c(-c3ccc(Cl)cc3)c1C)=C2O (centres unmarked) [Example 2-12, 3-(4′-chloro-2,4,6-trimethylbiphenyl-3-yl)-4-hydroxy-7-methoxy-1-oxaspiro[4.5]dec-3-en-2-one] | 4170 | 1150
14 | COC1CCCC2(C1)OC(=O)C(c1cc(-c3ccc(Cl)cc3)ccc1Cl)=C2O (centres unmarked) [Example 2-13, 3-(4,4′-dichlorobiphenyl-3-yl)-4-hydroxy-7-methoxy-1-oxaspiro[4.5]dec-3-en-2-one] | 816 | > 20000
15 | COC1CCCC2(C1)OC(=O)C(c1cc(-c3ccc(Cl)cc3)ccc1C)=C2O (centres unmarked) [Example 2-14, 3-(4′-chloro-4-methylbiphenyl-3-yl)-4-hydroxy-7-methoxy-1-oxaspiro[4.5]dec-3-en-2-one] | 562 | 19400
16 | COCC1CCC2(CC1)OC(=O)C(c1cc(-c3ccc(Cl)cc3)ccc1Cl)=C2O (centres unmarked) [Example 2-16, 3-(4,4′-dichlorobiphenyl-3-yl)-4-hydroxy-8-(methoxymethyl)-1-oxaspiro[4.5]dec-3-en-2-one] | 180 | 3340
17 | Cc1ccc(-c2ccc(F)cc2)cc1C1=C(O)C2(CCCCC2)OC1=O [Example 2-21, 3-(4′-fluoro-4-methylbiphenyl-3-yl)-4-hydroxy-1-oxaspiro[4.5]dec-3-en-2-one] | 400 | > 20000
18 | O=C1OC2(CCC3(CCCO3)CC2)C(O)=C1c1cc(-c2ccc(Cl)cc2)ccc1Cl (centres unmarked) [Example 2-27, 3-(4,4′-dichlorobiphenyl-3-yl)-4-hydroxy-1,9-dioxadispiro[4.2.4.2]tetradec-3-en-2-one] | 822 | 4150
19 | Cc1cc(C)c(-c2ccc(Cl)cc2)cc1C1=C(O)[C@]2(CC[C@@]3(CCCO3)CC2)OC1=O [Example 2-30, (5r,8s)-3-(4′-chloro-4,6-dimethylbiphenyl-3-yl)-4-hydroxy-1,9-dioxadispiro[4.2.4.2]tetradec-3-en-2-one] | 281 | 32
20 | Cc1cc(C)c(-c2ccc(Cl)cc2)c(C)c1C1=C(O)[C@]2(CC[C@@]3(CCCO3)CC2)OC1=O [Example 2-31, (5r,8s)-3-(4′-chloro-2,4,6-trimethylbiphenyl-3-yl)-4-hydroxy-1,9-dioxadispiro[4.2.4.2]tetradec-3-en-2-one] | 880 | 48
21 | Cc1ccc(-c2ccc(Cl)cc2)c(C)c1C1=C(O)C2(CCC(OCC(F)(F)F)CC2)OC1=O (centres unmarked) [Example 2-32, 3-(4′-chloro-2,4-dimethylbiphenyl-3-yl)-4-hydroxy-8-(2,2,2-trifluoroethoxy)-1-oxaspiro[4.5]dec-3-en-2-one] | 450 | 1600
22 | Cc1ccc(-c2ccc(Cl)cc2)cc1C1=C(O)C2(CCC(OCC(F)(F)F)CC2)OC1=O (centres unmarked) [Example 2-33, 3-(4′-chloro-4-methylbiphenyl-3-yl)-4-hydroxy-8-(2,2,2-trifluoroethoxy)-1-oxaspiro[4.5]dec-3-en-2-one] | 229 | 3590

The remaining lines, values ahead:

Row | IC50 [1] [nM] | IC50 [2] [nM] | Structure (SMILES)
23 | 204 | 3680 | Cc1ccc(-c2ccc(Cl)cc2)cc1C1=C(O)C2(CCC3(CC2)OCCO3)OC1=O [Example 2-15, 11-(4′-chloro-4-methylbiphenyl-3-yl)-12-hydroxy-1,4,9-trioxadispiro[4.2.4.2]tetradec-11-en-10-one]
24 | 158 | 652 | COCC1CCC2(CC1)OC(=O)C(c1c(C)ccc(-c3ccc(Cl)cc3)c1C)=C2O (centres unmarked) [Example 2-17, 3-(4′-chloro-2,4-dimethylbiphenyl-3-yl)-4-hydroxy-8-(methoxymethyl)-1-oxaspiro[4.5]dec-3-en-2-one]
25 | 479 | 3410 | COCCC1CCCC2(C1)OC(=O)C(c1cc(-c3ccc(Cl)cc3)ccc1C)=C2O (centres unmarked) [Example 2-18, 3-(4′-chloro-4-methylbiphenyl-3-yl)-4-hydroxy-7-(2-methoxyethyl)-1-oxaspiro[4.5]dec-3-en-2-one]
26 | 530 | 10000 | COCCC1CCCC2(C1)OC(=O)C(c1cc(-c3ccc(Cl)cc3)ccc1Cl)=C2O (centres unmarked) [Example 2-19, 3-(4,4′-dichlorobiphenyl-3-yl)-4-hydroxy-7-(2-methoxyethyl)-1-oxaspiro[4.5]dec-3-en-2-one]
27 | 137 | 1930 | COCC1CCC2(CC1)OC(=O)C(c1cc(-c3ccc(Cl)cc3)ccc1C)=C2O (centres unmarked) [Example 2-20, 3-(4′-chloro-4-methylbiphenyl-3-yl)-4-hydroxy-8-(methoxymethyl)-1-oxaspiro[4.5]dec-3-en-2-one]
28 | 824 | > 20000 | Cc1ccc(-c2ccc(F)c(F)c2)cc1C1=C(O)C2(CCCC2)OC1=O [Example 2-22, 3-(3′,4′-difluoro-4-methylbiphenyl-3-yl)-4-hydroxy-1-oxaspiro[4.4]non-3-en-2-one]
29 | 1370 | > 20000 | Cc1ccc(-c2ccc(F)c(Cl)c2)cc1C1=C(O)C2(CCCC2)OC1=O [Example 2-23, 3-(3′-chloro-4′-fluoro-4-methylbiphenyl-3-yl)-4-hydroxy-1-oxaspiro[4.4]non-3-en-2-one]
30 | 997 | > 20000 | O=C1OC2(CCCC2)C(O)=C1c1cc(-c2cc(F)c(F)c(F)c2)ccc1Cl [Example 2-24, 3-(4-chloro-3′,4′,5′-trifluorobiphenyl-3-yl)-4-hydroxy-1-oxaspiro[4.4]non-3-en-2-one]
31 | 442 | > 20000 | O=C1OC2(CCCCC2)C(O)=C1c1cc(-c2ccc(F)c(F)c2)ccc1Cl [Example 2-25, 3-(4-chloro-3′,4′-difluorobiphenyl-3-yl)-4-hydroxy-1-oxaspiro[4.5]dec-3-en-2-one]
32 | 260 | 4800 | Cc1ccc(-c2ccc(Cl)cc2)c(C)c1C1=C(O)[C@]2(CC[C@]3(CCCO3)CC2)OC1=O [Example 2-26, (5s,8r)-3-(4′-chloro-2,4-dimethylbiphenyl-3-yl)-4-hydroxy-1,9-dioxadispiro[4.2.4.2]tetradec-3-en-2-one]
33 | 140 | 2500 | Cc1ccc(-c2ccc(F)cc2)cc1C1=C(O)[C@]2(CC[C@@]3(CCCO3)CC2)OC1=O [Example 2-28, (5r,8s)-3-(4′-fluoro-4-methylbiphenyl-3-yl)-4-hydroxy-1,9-dioxadispiro[4.2.4.2]tetradec-3-en-2-one]
34 | 321 | 789 | Cc1ccc(-c2ccc(Cl)cc2)cc1C1=C(O)C2(CCC3(CCCO3)CC2)OC1=O (centres unmarked) [Example 2-29, 3-(4′-chloro-4-methylbiphenyl-3-yl)-4-hydroxy-1,9-dioxadispiro[4.2.4.2]tetradec-3-en-2-one]
